# In patent US20150368617A1, “METHOD FOR FORMING ENDOTHELIAL CELLS” (Korea Advanced Institute of Science and Technology (KAIST), priority 2012, published 2015):
# “Also recorded” adds a separate entry of the source.
# Assays:
# Assay type in all cases: cell-based, mouse
# Flk1+ MPCs [1] = experiment: Western blotting of signaling proteins in Flk1+ MPCs
# Description: FIGS. 10A-10B. PI3-kinase/Akt signaling and MyPT-MLC signaling are involved in ROCK suppression-induced expansion of ECs. Flk1+ MPCs were incubated with indicated agents for 2 days, and analyses were performed on day 6.5. (FIG. 10A) Immunoblotting for pPTEN, PTEN, pAkt, Akt, pERK, ERK, pMyPT, MyPT, pMLC, MLC, ┌ SMA and GAPDH in Flk1+ MPCs treated with PBS (Control), Y27632 (10┌ M), VEGF-A (50 ng/ml; VA), or VA plus Y27632. The Flk1+ MPCs were cultured for 12 hrs, starved for 6 hrs with or without Y27632, and then treated with VEGF-A (50 ng/ml) for 10 min. Results from four independent trials were similar to each other. (FIG. 10B) Quantitative analyses of phosphorylations of AKT, PTEN, MyPT and MLC. Signal intensities were quantitatively evaluated using Image J software. Intensity of phosphorylated/total form of each protein in Control is regarded as 1 and relative intensities are expressed as fold. The mean of relative values from four independent experiments are represented. *p<0.01 versus Control. ^#p<0.01 versus VEGF-A. N.D represents non-detected.
# Cell lysates were separated by SDS-PAGE gel and transferred to PVDF membranes for Western Blot analysis. After blocking with 5% skim milk, the membranes were first incubated with primary antibodies in blocking buffer overnight at 4┌ C, then with HRP-conjugated secondary antibodies for 1 hr at RT. The following primary antibodies were used: anti-RhoA (mouse monoclonal, Cytoskeleton Inc.), anti-ROCK1 (mouse monoclonal, Santa Cruz), anti-ROCK2 (rabbit polyclonal, Santa Cruz), anti-┌-tubulin (mouse monoclonal, Santa Cruz), anti-phospho-PTEN (Ser380/Thr382/383)(clone 44A7, Cell Signaling), anti-PTEN (clone 138G6, Cell Signaling), anti-phospho-Akt (Ser473)(clone 193H12, Cell Signaling), anti-Akt (rabbit polyclonal, Cell Signaling), anti-phospho-ERK (Thr202/Tyr204) (clone 20G11, Cell Signaling), anti-ERK (rabbit monoclonal, Cell Signaling), anti-phospho-MyPT (Thr696) (rabbit polyclonal, Cell Signaling), anti-MyPT (rabbit polyclonal, Cell Signaling), anti-phospho-MLC (Thr18/Ser19) (rabbit polyclonal, Cell Signaling), anti-MLC (rabbit polyclonal, Cell Signaling), anti-┌ SMA (rabbit polyclonal, Novus Biologicals), anti-GAPDH (rabbit polyclonal, Santa Cruz), anti-phospho-VEGFR2 (Tyr1175) (clone 19A10, Cell Signaling), and anti-VEGFR2 (clone 55B11, Cell Signaling). The secondary antibodies used were rabbit anti-mouse IgG-HRP (Santa Cruz) and goat anti-rabbit IgG-HRP (Santa Cruz). Signals were developed with enhanced chemiluminescence HRP substrate (Millipore) and detected using LAS-3000 mini (Fuji film).
# ICAM2+ ECs = experiment: Quantitative RT-PCR of EC- and MC-related genes in purified ICAM2+ ECs; settings: VEGF-A plus Y27632 compared to VEGF-A
# Source text: Total RNA from purified ICAM-2+ ECs was extracted using Trizol RNA extraction kit (Invitrogen) according to the manufacturer's instructions. 1┌ g of the RNA was reverse transcribed into cDNA using GoScript™ cDNA synthesis system (Promega). Synthesized cDNA was applied for quantitative real-time PCR using FastStart SYBR green Master (Roche) and Bio-Rad S1000 Thermal cycler with the indicated primers (Table I). GAPDH was used as reference gene and the results were presented as relative expression to control using the ddCt method.
# Flk1+ MPCs [2] = experiment: Apoptosis assay (Annexin V/PI) in differentiating Flk1+ MPCs; settings: 6 and 36 hrs
# Description: Apoptosis assay was performed as previously described. To determine the cell cycle, BrdU/7-AAD cell cycle analysis was performed according to the manufacturer's instructions (BD Pharmingen™). Briefly, cells were incubated with BrdU (1 mM) for 1 hr, dissociated with dissociation buffer, and stained with anti-CD144 antibody. The cells were then fixed, permeabilized, and fixed once more, followed by 1 hr incubation with DNase I (200 U) at 37┌ C. After incubation with FITC-conjugated anti-BrdU antibody for 20 min at RT, the cells were stained with 7-AAD. The cells were analyzed by FACS Aria II and the data were analyzed using FlowJo software.
# Flk1+ MPCs [3] = experiment: EC colony assay; settings: 36 hrs; VEGF-A 50 ng/ml, Y27632 10 μM
# Description: The Flk1+ MPCs were plated onto Matrigel-coated plate at a density of 4,000 cells/cm^2, and cultured in differentiation medium supplemented with VEGF-A165 (50 ng/ml) and Y27632 (10┌M). At 36 hrs later, the number of CD144+ EC colonies was counted. Clustering of >5 CD144+ ECs was regarded as one EC colony.
# [4] = Y27632 10 μM, VEGF-A 50 ng/ml for 10 min
# [5] = regardless of VEGF-A stimulation
smiles,measurement,setting,value
C[C@@H](N)[C@H]1CC[C@H](C(=O)Nc2ccncc2)CC1 [Y27632],phosphorylation of Akt (Ser473),Flk1+ MPCs [1]; [4],phosphorylated
same,phosphorylation of ERK,Flk1+ MPCs [1]; [4],but not ERK
same,"phosphorylation of PTEN (Ser380, Thr382 and Thr383)",Flk1+ MPCs [1]; [4],phosphorylated
same,phosphorylation of MLC,Flk1+ MPCs [1]; [5],almost completely reduced; also recorded: inhibits
same,phosphorylation of MyPT,Flk1+ MPCs [1]; [5],almost completely reduced
same,protein levels of αSMA,Flk1+ MPCs [1]; [5],reduced
same,"calponin mRNA, reduced expression level",ICAM2+ ECs,25 fold
same,"claudin-5 mRNA, expressed more",ICAM2+ ECs,4.6 fold
same,"dll4 mRNA, expressed more",ICAM2+ ECs,2.5 fold
same,"ets1 mRNA, expressed more",ICAM2+ ECs,1.4 fold
same,"ets2 mRNA, expressed more",ICAM2+ ECs,2.1 fold
same,"notch1 mRNA, expressed more",ICAM2+ ECs,1.5 fold
same,"sm22a mRNA, reduced expression level",ICAM2+ ECs,25 fold
same,"sma mRNA, reduced expression level",ICAM2+ ECs,17 fold
same,"sox17 mRNA, expressed more",ICAM2+ ECs,1.7 fold
same,"sox18 mRNA, expressed more",ICAM2+ ECs,1.8 fold
same,"vegfr3 mRNA, expressed more",ICAM2+ ECs,1.7 fold
same,population of Annexin V+/PI- apoptotic cells,Flk1+ MPCs [2],did not significantly change
same,number of EC colonies and cell number in each colony,Flk1+ MPCs [3],increased
